From publication PMC5951806, “Rapid labelling and covalent inhibition of intracellular native proteins using ligand-directed N-acyl-N-alkyl sulfonamide” (Nature Communications, 2018)

Legend:
Experiment in all cases: TMT LC-MSMS of 11-labelled proteins
Format in all cases: cell-based
[1] = molecular target: T1, Monocarboxylate transporter 4 (SLC16A3) (Homo sapiens, UniProt O15427); as to Abundance Ratio: (11) / (11 with PU-H71): test concentration or dose not given here; as to Abundance Ratio: (11) / (DMSO): test concentration or dose not given here
T1 sequence (O15427 1-465): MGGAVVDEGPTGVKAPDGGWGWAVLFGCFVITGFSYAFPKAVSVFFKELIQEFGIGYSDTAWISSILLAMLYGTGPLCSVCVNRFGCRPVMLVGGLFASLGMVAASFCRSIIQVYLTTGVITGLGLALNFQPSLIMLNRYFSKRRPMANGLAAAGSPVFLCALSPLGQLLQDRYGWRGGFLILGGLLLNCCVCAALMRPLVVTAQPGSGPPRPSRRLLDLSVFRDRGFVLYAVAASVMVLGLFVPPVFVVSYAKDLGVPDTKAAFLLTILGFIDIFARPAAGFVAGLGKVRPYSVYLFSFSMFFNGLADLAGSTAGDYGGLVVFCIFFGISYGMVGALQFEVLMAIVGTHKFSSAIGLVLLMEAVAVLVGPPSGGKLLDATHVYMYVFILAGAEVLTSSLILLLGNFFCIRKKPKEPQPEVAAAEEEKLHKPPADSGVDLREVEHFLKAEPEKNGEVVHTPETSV
Description: (§1) Supplement 41467_2018_4343_MOESM4_ESM.xlsx, sheet "Exp3" | column: Abundance Ratio: (11) / (11 with PU-H71); Abundance Ratio: (11) / (DMSO); Abundances (Grouped): 11; Abundances (Grouped): 11 with PU-H71

[2] = molecular target: T2, Isoform 3 of Hexokinase-1 (HK1) (Homo sapiens, UniProt P19367); as to Abundance Ratio: (11) / (DMSO): test concentration or dose not given here
T2 sequence (P19367 1-921 isoform P19367-3): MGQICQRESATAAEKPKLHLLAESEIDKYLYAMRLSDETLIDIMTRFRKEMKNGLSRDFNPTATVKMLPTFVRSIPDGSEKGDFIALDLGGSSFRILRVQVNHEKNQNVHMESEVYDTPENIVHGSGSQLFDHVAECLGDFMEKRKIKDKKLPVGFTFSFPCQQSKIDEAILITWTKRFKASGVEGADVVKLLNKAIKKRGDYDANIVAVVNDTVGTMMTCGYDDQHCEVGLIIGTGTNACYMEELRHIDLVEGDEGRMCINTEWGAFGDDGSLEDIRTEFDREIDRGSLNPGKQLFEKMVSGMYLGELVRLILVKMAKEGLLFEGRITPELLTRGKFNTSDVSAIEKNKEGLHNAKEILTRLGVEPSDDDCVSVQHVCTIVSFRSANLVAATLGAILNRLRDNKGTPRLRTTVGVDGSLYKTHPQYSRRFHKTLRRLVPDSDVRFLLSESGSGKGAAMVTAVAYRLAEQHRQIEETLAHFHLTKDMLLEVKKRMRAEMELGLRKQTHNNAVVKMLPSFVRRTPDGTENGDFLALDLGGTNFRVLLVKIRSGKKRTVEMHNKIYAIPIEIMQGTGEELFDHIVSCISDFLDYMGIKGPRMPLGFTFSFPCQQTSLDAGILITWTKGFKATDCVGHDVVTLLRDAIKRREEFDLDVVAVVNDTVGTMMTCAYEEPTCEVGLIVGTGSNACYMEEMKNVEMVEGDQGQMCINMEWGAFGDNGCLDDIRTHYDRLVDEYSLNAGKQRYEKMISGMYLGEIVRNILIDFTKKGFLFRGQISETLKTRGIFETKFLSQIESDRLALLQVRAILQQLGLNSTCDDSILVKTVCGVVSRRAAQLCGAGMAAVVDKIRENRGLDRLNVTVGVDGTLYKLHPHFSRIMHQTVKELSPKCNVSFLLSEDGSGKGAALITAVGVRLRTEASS
Description: as §1

Peroxiredoxin-4 (PRDX4) = molecular target: T3, Peroxiredoxin-4 (PRDX4) (Homo sapiens, UniProt Q13162)
T3 sequence (Q13162 38-271): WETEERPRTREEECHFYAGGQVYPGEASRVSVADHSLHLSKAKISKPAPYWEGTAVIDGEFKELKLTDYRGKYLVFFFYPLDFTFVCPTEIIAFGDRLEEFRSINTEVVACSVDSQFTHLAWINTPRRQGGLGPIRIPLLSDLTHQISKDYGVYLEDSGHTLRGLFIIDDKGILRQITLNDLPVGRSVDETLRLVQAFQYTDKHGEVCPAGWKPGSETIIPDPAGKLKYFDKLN
Description: as §1

[3] = molecular target: Dolichyl-diphosphooligosaccharide--protein glycosyltransferase subunit 1 (RPN1) (Homo sapiens, UniProt P04843)
Description: as §1

[4] = molecular target: T4, Phosphate carrier protein, mitochondrial (SLC25A3) (Homo sapiens, UniProt Q00325); as to Abundance Ratio: (11) / (11 with PU-H71): test concentration or dose not given here; as to Abundance Ratio: (11) / (DMSO): test concentration or dose not given here
T4 sequence (Q00325 50-362): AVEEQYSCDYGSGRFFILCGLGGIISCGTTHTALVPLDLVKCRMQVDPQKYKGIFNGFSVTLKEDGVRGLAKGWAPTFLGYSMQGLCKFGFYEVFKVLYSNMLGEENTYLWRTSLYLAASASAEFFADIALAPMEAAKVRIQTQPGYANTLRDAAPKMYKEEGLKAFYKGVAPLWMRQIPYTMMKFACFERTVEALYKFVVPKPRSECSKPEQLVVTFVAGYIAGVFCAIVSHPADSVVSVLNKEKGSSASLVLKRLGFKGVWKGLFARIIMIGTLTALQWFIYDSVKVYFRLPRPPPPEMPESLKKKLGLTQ
Description: as §1

protein MAL2 (MAL2) = protein MAL2 (MAL2) (Homo sapiens, UniProt Q969L2); as to Abundance Ratio: (11) / (11 with PU-H71): test concentration or dose not given here
Description: as §1

protein MAL2 (MAL2), sequence (Q969L2 whole entry): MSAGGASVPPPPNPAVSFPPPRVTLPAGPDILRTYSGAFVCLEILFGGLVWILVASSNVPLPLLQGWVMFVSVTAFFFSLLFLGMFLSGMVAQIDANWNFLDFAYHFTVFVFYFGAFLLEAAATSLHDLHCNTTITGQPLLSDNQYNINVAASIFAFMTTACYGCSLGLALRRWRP
Dolichyl-diphosphooligosaccharide--protein glycosyltransferase subunit 1 (RPN1), sequence (P04843 24-607): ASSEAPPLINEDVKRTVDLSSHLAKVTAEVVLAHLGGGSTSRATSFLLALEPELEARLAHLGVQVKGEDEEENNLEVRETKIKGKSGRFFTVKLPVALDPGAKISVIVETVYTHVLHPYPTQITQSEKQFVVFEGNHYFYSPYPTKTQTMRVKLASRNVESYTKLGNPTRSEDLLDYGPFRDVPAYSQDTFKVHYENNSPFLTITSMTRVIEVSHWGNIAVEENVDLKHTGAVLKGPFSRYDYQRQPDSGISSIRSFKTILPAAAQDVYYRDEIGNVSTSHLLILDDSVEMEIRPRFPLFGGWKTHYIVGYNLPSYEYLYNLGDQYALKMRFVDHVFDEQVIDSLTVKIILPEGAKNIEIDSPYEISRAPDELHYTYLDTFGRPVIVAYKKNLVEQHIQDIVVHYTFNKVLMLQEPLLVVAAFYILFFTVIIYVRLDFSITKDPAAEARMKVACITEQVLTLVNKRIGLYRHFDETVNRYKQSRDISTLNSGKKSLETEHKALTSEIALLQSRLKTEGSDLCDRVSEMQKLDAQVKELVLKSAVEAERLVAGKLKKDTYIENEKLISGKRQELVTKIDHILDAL
Dolichyl-diphosphooligosaccharide--protein glycosyltransferase subunit 1 (RPN1), sequence (P39656 43-456 partner): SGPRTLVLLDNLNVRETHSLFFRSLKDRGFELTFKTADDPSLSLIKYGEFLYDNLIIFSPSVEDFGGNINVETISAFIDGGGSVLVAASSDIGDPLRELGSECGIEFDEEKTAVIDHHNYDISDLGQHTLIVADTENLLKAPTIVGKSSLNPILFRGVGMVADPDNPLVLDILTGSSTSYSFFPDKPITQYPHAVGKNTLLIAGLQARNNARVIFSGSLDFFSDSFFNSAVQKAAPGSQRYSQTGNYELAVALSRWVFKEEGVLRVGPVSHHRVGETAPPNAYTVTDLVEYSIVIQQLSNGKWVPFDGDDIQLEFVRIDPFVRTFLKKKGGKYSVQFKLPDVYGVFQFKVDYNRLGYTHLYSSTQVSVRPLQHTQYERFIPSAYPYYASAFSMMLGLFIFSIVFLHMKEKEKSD
Dolichyl-diphosphooligosaccharide--protein glycosyltransferase subunit 1 (RPN1), sequence (P04844 23-631 partner): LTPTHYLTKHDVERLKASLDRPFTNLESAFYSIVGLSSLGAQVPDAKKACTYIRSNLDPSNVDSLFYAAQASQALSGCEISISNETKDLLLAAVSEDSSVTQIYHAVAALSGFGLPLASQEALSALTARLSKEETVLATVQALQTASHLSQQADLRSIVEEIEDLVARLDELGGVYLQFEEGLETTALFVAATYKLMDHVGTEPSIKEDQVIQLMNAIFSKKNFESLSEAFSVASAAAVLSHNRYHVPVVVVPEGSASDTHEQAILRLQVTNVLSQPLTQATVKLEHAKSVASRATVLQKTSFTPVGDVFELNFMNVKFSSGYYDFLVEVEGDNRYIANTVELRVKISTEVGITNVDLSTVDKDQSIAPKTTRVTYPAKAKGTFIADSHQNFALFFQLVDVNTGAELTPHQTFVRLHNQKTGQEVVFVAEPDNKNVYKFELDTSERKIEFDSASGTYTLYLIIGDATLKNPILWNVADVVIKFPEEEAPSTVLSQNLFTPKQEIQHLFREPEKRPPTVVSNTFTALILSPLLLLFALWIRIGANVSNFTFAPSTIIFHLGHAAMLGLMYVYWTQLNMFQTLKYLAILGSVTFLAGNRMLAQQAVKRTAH
Dolichyl-diphosphooligosaccharide--protein glycosyltransferase subunit 1 (RPN1), sequence (P61803 whole entry partner): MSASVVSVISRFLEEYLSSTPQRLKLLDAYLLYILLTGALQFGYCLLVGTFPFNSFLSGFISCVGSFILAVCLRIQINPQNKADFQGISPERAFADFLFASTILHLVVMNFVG
Dolichyl-diphosphooligosaccharide--protein glycosyltransferase subunit 1 (RPN1), sequence (P61165 whole entry partner): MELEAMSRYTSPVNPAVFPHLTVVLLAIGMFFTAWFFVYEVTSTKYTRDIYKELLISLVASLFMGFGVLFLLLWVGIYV
Dolichyl-diphosphooligosaccharide--protein glycosyltransferase subunit 1 (RPN1), sequence (P0C6T2 whole entry partner): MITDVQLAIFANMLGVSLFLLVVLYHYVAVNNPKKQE

With `CC(=O)Oc1ccc2c(c1)Oc1cc(OC(C)=O)ccc1C21OC(=O)c2cc(C(=O)NCCOCCOCCNC(=O)CCCC(=O)N(CC#N)S(=O)(=O)c3ccc(C(=O)NCCCn4c(Sc5cc6c(cc5I)OCO6)nc5c(N)ncnc54)cc3)ccc21` [compound 11] the “Abundance Ratio: (11) / (11 with PU-H71)” value ([1]; Exp3) was 0.921, the “Abundance Ratio: (11) / (DMSO)” value ([1]; Exp3) was 12.228 and the “Abundances (Grouped): 11” value ([1]; Exp3) was 353.4. The “Abundances (Grouped): 11 with PU-H71” value ([1]; Exp3, with PU-H71) was 383.7, the “Abundance Ratio: (11) / (11 with PU-H71)” value ([2]; Exp3) was 1.072 and the “Abundance Ratio: (11) / (DMSO)” value ([2]; Exp3) was 2.893. For the same molecule, the “Abundances (Grouped): 11” value ([2]; Exp3) was 29.8, the “Abundances (Grouped): 11 with PU-H71” value ([2]; Exp3, with PU-H71) was 27.8 and the “Abundance Ratio: (11) / (11 with PU-H71)” value (Peroxiredoxin-4 (PRDX4); Exp3) was 0.973. For the same molecule, the “Abundance Ratio: (11) / (DMSO)” value (Peroxiredoxin-4 (PRDX4); Exp3) was 2.612, the “Abundances (Grouped): 11” value (Peroxiredoxin-4 (PRDX4); Exp3) was 25.6 and the “Abundances (Grouped): 11 with PU-H71” value (Peroxiredoxin-4 (PRDX4); Exp3, with PU-H71) was 26.3. The “Abundance Ratio: (11) / (11 with PU-H71)” value ([3]; Exp3) was 0.849, the “Abundance Ratio: (11) / (DMSO)” value ([3]; Exp3) was 2.221 and the “Abundances (Grouped): 11” value ([3]; Exp3) was 38.2. The “Abundances (Grouped): 11 with PU-H71” value ([3]; Exp3, with PU-H71) was 45, the “Abundance Ratio: (11) / (11 with PU-H71)” value ([4]; Exp3) was 0.732 and the “Abundance Ratio: (11) / (DMSO)” value ([4]; Exp3) was 2.193. The “Abundances (Grouped): 11” value ([4]; Exp3) was 121.3, the “Abundances (Grouped): 11 with PU-H71” value ([4]; Exp3, with PU-H71) was 165.7 and the “Abundance Ratio: (11) / (11 with PU-H71)” value (protein MAL2 (MAL2); Exp3) was 0.751. The “Abundance Ratio: (11) / (DMSO)” value (protein MAL2 (MAL2); Exp3) was 5.099, the “Abundances (Grouped): 11” value (protein MAL2 (MAL2); Exp3) was 71.9 and the “Abundances (Grouped): 11 with PU-H71” value (protein MAL2 (MAL2); Exp3, with PU-H71) was 95.8.
